From patent US11324725B2, “Compositions and methods for the inhibition of pruritus” (The United States of America, as represented by the …, priority 2017, dated 2022)

Molecular target: T1, mNpr1 (Mus musculus, UniProt P18293)
T1 construct: host or cells: HEK-293, transient co-transfection with pGS-40F
T1 sequence (P18293 29-1057): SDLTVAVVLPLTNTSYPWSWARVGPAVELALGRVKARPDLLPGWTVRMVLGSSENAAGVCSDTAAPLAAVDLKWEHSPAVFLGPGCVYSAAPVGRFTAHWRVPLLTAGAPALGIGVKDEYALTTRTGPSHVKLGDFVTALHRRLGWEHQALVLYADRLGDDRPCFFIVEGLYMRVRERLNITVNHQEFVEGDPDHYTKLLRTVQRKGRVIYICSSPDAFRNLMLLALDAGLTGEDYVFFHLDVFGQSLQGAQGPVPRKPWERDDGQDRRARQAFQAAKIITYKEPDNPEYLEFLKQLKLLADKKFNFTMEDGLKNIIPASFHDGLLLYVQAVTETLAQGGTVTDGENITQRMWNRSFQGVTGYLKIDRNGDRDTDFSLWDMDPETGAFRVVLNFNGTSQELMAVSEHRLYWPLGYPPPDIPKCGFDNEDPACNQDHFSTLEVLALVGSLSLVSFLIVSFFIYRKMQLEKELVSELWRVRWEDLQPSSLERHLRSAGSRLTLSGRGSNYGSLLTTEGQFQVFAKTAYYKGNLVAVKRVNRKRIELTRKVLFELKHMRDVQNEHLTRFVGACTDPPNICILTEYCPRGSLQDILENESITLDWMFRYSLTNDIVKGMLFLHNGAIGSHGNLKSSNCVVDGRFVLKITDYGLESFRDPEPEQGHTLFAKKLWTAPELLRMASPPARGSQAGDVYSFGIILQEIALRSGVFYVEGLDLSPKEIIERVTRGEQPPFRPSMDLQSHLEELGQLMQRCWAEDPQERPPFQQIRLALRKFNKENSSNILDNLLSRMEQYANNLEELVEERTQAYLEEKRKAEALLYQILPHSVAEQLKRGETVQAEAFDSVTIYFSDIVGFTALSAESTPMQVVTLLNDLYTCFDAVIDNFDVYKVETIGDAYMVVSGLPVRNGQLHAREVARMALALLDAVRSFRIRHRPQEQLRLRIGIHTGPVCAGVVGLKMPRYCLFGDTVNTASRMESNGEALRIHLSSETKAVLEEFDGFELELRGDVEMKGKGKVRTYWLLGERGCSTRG
Experiment: GloSensor assay, HEK-293 cells transiently expressing mNpr1 and pGS-40F
Format: cell-based
Conditions: for IC50: 1 nM mNppb 5 minutes after compound, read-out: IC50 [μM] (mean ± SEM), mNpr1; for Ki: calculated with Cheng-Prusoff equation from Table 6, read-out: Ki mNpr1 GloSensor™ [μM] (mean ± SEM)
Experimental: HEK-293 cells (American Type Culture Collection “ATTC,” Manassas, Va.) were cultured in DMEM/F12 supplemented with 2 mM L-glutamine, 10% FBS, 100 U/ml penicillin, and 100 μg/ml streptomycin. For transient expression, 8×10^5 cells were seeded in 6-wells, cultured for 24 hours, and then transfected using TransIT®-293 (Mirus, Madison, Wis.) according to the manufacturer's instructions. After transfection (48 hours), cells were used to measure intracellular cGMP production. HEK-293 cell clones stably expressing pGloSensor™-40F alone (HEK-cGMP-sensor cells) or in addition, human Npr1 (“hNpr1”) (HEK-hNpr1-cGMP-sensor cells) or human Npr2 (HEK-hNpr2-cGMP-sensor cells) were generated by co-transfection with pEAK8-GFP and selection with 1 μg/ml puromycin. Stable expression of transgenes was verified by measuring ligand-induced cGMP production with the cGMP biosensor.
Before the measurement (24 hours in advance), 3×10^4 cells were seeded into white 96-well plates (PerkinElmer, Waltham, Mass.), coated with 0.1% poly(D-lysine), and assays conducted as recommended by the manufacturer (Promega). Medium was aspirated and cells were loaded for two hours at room temperature with 2% GoSensor™ reagent diluted in CO2-independent media (ThermoFisher) supplemented with 2 mM L-glutamine and 10% FBS (assay medium). Luminescence was measured on a BioTek Synergy™ NEO (Winooski, Vt.) plate reader at room temperature. After a baseline measurement of 3-5 minutes, assay medium as a control or assay medium with agonist was manually added, and luminescence was measured for 30 minutes at ˜ 1/60 Hz. For compounds tested for Npr1 and Npr2 inhibition, the compounds were added after baseline measurements, and luminescence was read for 5 minutes before addition of agonist. Luminescence was then normalized to baseline measurements and plotted against the time. Ligand-induced changes of cGMP production were quantified by determining the area under the curve. To determine efficacy and potency of agonists, ligand-induced changes were normalized to medium only addition and plotted against the ligand concentration. […] To quantify […] of compounds, compound-induced changes of agonist-induced cGMP production were normalized to vehicle controls, plotted against compound concentration, and fit with a four-parameter logistic regression. Effects of A-71915 on basal mNpr1 activity were fitted with a bell-shaped regression (equation indicated below).
Because the Npr1 receptor is a ligand-dependent guanylate cyclase, measuring agonist-induced changes in intracellular cGMP levels was used to examine inhibition of Npr1. To measure the production of cGMP by Npr1, a circular permutated Firefly luciferase molecule which was functionally linked to the cGMP binding domain of human PDE5 (GloSensor™ technology pGS-40F) was used, as described in Example 1. This reporter molecule together with a luciferase substrate (GoSensor™ reagent) and a sensitive method for detection of luciferase activity (emitted light) permitted real-time measurement of cGMP levels in live cells (FIG. 1A). The cGMP sensor was expressed in HEK293 cells and luciferase activity after stimulation with the NO-donor sodium nitroprusside (SNP), which activates ubiquitously expressed soluble guanylate cyclases, was examined. […] Next, mNpr1 and the cGMP sensor were transiently expressed in HEK293 cells and agonist dependent receptor activation was examined. […] Next, the effects of A-71915 on mNpr1 were tested.
For Table 6, HEK-293 cells transiently expressing mNpr1 and pGS-40F were stimulated with 1 nM mNppb 5 minutes after addition of candidate compounds or A-71915 and luminescence was measured for 30 minutes. Inhibitors were titrated to calculate apparent IC50 values, as described in methods.

Row | IC50 [µM] | Ki [µM] | SMILES
1 | 11 ± 3.4 | 0.22 ± 0.07 | COc1cc(CN2CCC(C)(NC(C)=O)CC2)cc(-c2ccncc2)c1 [JS-4, N-(1-(3-methoxy-5-(pyridin-4-yl)benzyl)-4-methylpiperidin-4-yl)acetamide]
2 | 82 ± 68 | 1.69 ± 1.39 | COc1ccccc1-c1n[nH]c2ncc(C(=O)NCc3cccnc3)nc12 [JS-6, 3-(2-methoxyphenyl)-N-(pyridin-3-ylmethyl)-1H-pyrazolo[3,4-b]pyrazine-5-carboxamide]
3 | 28 | 0.57 ± 0.0004 | Cc1nn2c(c1-c1ccccc1OCc1ccccc1)N(C(=O)Cc1ccccn1)CCC2 [JS-9, 1-(3-(2-(benzyloxy)phenyl)-2-methyl-6,7-dihydropyrazolo[1,5-a]pyrimidin-4(5H)-yl)-2-(pyridin-2-yl)ethan-1-one]
4 | 15 ± 1.8 | 0.31 ± 0.037 | Cc1nn2c(c1-c1ccccc1Oc1ccccc1)N(C(=O)Cc1ccc3c(c1)OCO3)CCC2 [JS-10, 2-(benzo[d][1,3]dioxol-5-yl)-1-(2-methyl-3-(2-phenoxyphenyl)-6,7-dihydropyrazolo[1,5-a]pyrimidin-4(5H)-yl)ethan-1-one]
5 | 10 ± 2.2 | 0.21 ± 0.046 | N#Cc1ccccc1CN1CCCC(C(=O)NCc2ccccc2)CCNC(=O)CC1 (stereo not shown) [JS-13, N-benzyl-1-(2-cyanobenzyl)-4-oxo-1,5-diazacycloundecane-8-carboxamide]
6 | 15.8 ± 16 | 0.32 ± 0.329 | CN(Cc1ccccc1)C(=O)c1cn2ccnc(-c3ccccc3)c2n1 [JS-14, N-benzyl-N-methyl-8-phenylimidazo[1,2-a]pyrazine-2-carboxamide]

Row | SMILES | IC50 [µM] | Ki [µM]
7 | CCC(CC)c1cc([C@H]2CN3CC[C@H]2C[C@@H]3CNS(=O)(=O)c2cccs2)nc(-c2ccncc2)n1 [JS-3, N-(((2R,4S,5R)-5-(6-(pentan-3-yl)-2-(pyridin-4-yl)pyrimidin-4-yl)quinuclidin-2-yl)methyl)thiophene-2-sulfonamide] | 12 ± 1.8 | 0.25 ± 0.036
8 | Cc1noc(C)c1-c1cc(-c2ccccc2Oc2ccccc2)cn2cncc12 [JS-5, 3,5-dimethyl-4-(6-(2-phenoxyphenyl)imidazo[1,5-a]pyridin-8-yl)isoxazole] | 20 ± 12 | 0.42 ± 0.265
9 | Cc1nn2c(c1-c1ccccc1OCc1ccccc1)N(C(=O)Cc1ccc3c(c1)OCO3)CCC2 [JS-8, 2-(benzo[d][1,3]dioxol-5-yl)-1-(3-(2-(benzyloxy)phenyl)-2-methyl-6,7-dihydropyrazolo[1,5-a]pyrimidin-4(5H)-yl)ethan-1-one] | 4.7 ± 0.3 | 0.1 ± 0.006
10 | Cc1cc(CNC(=O)c2ccc3c(c2)n(CC2CC2)c(=O)n3C2CCCCC2)on1 [JS-11, 1-cyclohexyl-3-(cyclopropylmethyl)-N-((3-methylisoxazol-5-yl)methyl)-2-oxo-2,3-dihydro-1H-benzo[d]imidazole-5-carboxamide] | 4.9 ± 1.5 | 0.1 ± 0.03
11 | COc1ccc(C2(C(=O)N3CCC4(CC3)c3nccn3-c3ccccc3CN4C)CC2)cc1 [JS-12, (1-(4-methoxyphenyl)cyclopropyl)(5-methyl-5,6-dihydrospiro[benzo[f]imidazo[1,2-a][1,4]diazepine-4,4′-piperidin]-1′-yl)methanone] | 13 ± 0.3 | 0.26 ± 0.006
